Laboratory results: patent US9023789B2, “Amylin analogs and pharmaceutical compositions thereof” (Novo Nordisk A/S, priority 2012, dated 2015)
pEC50, pIC50: −log10 of the molar value. Values after ≈ are worked out from the molar mass of the structure shown. Read-outs that look alike come from different tables or passages of the source. Numbered stars: 1 amine (or outer) side, 2 acyl side, 3 side chain; on linkers, the order of the positions; unused ones are H or OH. Bridge positions count the residues as written; N and C are the ends. Side chains are listed from the residue outwards. Peptide text beside a SMILES is read from it. * marks the point of attachment. C20 diacid = O=C(O)CCCCCCCCCCCCCCCCCCC(=O)*; γGlu = O=C(O)[C@H](CCC(=O)[*:2])N[*:1]

How the values were obtained:
[1] = biological target: T1, human amylin 3(a) receptor (human calcitonin receptor + RAMP-3) in BHK570 cells (Homo sapiens, UniProt O60896+P30988); assay: ASSAY (II)a functional assay, human amylin receptor (CRE luciferase); format: cell-based; details: for pEC50: human amylin receptor functional potency, assay (II), read-out: hAmylin-R funct. EC50
T1 construct: expressed in transfected cells
Outline: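 BHK cells stably carrying a CRE-luciferase reporter plus calcitonin receptor, or calcitonin receptor with RAMP-3 for the amylin 3(a) receptor, were seeded and kept overnight at 37° C. Compounds were added in assay medium with 10% FBS and 10 mM Hepes, pH 7.4, for 3 hours at 37° C, then luminescence was counted.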

[2] = ASSAY (IV) determination of solubility; format: physicochemical
Outline: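 Dissolve polypeptide in water ([…] stock); combine 1:1 with each 100 mM buffer (glycylglycine pH 3.0/4.0/5.0; bistrispropane pH 6.0/6.5/7.0/7.5/8.0); hold 18 hours at room temperature; centrifuge; quantify polypeptide by UPLC.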

[3] = biological target: T2, human amylin receptor (membranes from Amylin 3(a)/CRE-luc cells) (Homo sapiens, UniProt O60896+P30988); assay: ASSAY (V) binding to the human amylin receptor (SPA, 125I-rat amylin); details: for pIC50: Table 4, read-out: hAmylin-R bind IC50;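 for all read-outs here: competition binding of cell membranes (35 ng/µL) mixed with SPA beads in 384-well plates at 40 µL total volume, read by scintillation counting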
T2 construct: expressed in transfected cells
T2 sequence (P30988 25-474): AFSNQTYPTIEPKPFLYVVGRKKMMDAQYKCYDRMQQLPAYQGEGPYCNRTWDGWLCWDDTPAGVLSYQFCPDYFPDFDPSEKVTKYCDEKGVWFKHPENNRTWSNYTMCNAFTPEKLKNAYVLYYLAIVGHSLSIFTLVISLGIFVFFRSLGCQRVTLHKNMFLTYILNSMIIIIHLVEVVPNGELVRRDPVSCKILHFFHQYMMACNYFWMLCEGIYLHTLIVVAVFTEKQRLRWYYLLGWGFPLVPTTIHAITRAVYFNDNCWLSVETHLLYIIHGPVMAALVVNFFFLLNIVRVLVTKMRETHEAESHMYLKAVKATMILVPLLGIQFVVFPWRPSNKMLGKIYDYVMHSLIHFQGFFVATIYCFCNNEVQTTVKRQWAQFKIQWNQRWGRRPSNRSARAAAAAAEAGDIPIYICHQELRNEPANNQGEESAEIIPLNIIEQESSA
T2 sequence (O60896 24-148 partner): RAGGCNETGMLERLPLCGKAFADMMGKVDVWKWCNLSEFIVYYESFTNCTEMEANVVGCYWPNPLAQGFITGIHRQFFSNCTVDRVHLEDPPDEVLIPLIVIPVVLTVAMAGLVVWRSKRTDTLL

[4] = biological target: T3, rat amylin receptor (rat calcitonin receptor + rat RAMP 3) (Rattus norvegicus, UniProt P32214+Q9JJ73); assay: ASSAY (VI) binding to the rat amylin receptor; details: for pIC50: binding to rat amylin receptor, read-out: rAmylin-R bind IC50
T3 construct: expressed in transfected cells; host or cells: BHK tk'ts 13 (transient, FuGENE 6), membranes
T3 sequence (P32214 25-479 isoform P32214-2 limits assumed): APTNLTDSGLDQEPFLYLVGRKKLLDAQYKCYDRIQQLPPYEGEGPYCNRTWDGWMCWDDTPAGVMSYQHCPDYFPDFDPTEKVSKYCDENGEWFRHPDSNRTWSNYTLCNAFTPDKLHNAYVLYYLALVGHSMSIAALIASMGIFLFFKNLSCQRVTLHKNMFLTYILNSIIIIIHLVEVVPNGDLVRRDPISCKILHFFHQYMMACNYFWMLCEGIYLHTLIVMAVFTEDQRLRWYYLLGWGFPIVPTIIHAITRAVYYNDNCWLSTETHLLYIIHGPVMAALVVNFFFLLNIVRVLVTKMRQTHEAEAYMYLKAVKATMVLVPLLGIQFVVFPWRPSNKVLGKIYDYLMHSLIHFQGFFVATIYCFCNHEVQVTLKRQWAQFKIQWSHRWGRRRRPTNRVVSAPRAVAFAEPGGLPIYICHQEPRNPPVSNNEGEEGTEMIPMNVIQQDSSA
T3 sequence (Q9JJ73 23-147 partner): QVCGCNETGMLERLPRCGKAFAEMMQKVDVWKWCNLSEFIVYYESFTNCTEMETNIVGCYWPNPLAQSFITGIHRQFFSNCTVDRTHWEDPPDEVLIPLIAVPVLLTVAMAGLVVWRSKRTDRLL
Outline: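 Binding to the rat amylin receptor was determined with membrane preparations. The receptor was expressed by transiently transfecting BHK tk′ts 13 cells with rat calcitonin receptor, using FuGENE® 6 (Roche) according to the manufacturer's recommendations. Roughly 48 hours later the cells were harvested and their membranes isolated.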

[5] = biological target: T4, rat calcitonin receptor (Rattus norvegicus, UniProt P32214); assay: ASSAY (VIII) binding to the rat calcitonin receptor; details: Table 7, read-out: rCTR bind IC50
T4 construct: expressed in transfected cells; host or cells: BHK tk'ts 13 (transient, FuGENE 6), membranes
T4 sequence (P32214 25-479 isoform P32214-2 limits assumed): T3 sequence (P32214 25-479 isoform P32214-2 limits assumed)
Outline: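 Rat calcitonin receptor is expressed transiently in BHK tk′ts 13 cells cultured in DMEM with 10% FBS. Roughly two days (approximately 48 hours) post-transfection, cells are harvested for membrane preparation.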

[6] = hCTR funct. EC50 divided by hAmylin-R funct. EC50
[7] = hCTR funct. EC50 over hAmylin-R funct. EC50
[8] = human functional selectivity: hCTR funct. EC50 / hAmylin-R funct. EC50
[9] = bistrispropane buffer, pH 6.5, read-out: Solubility pH 6.5 Concentration
[10] = bistrispropane buffer, pH 7.5, read-out: Solubility pH 7.5 Concentration
[11] = bistrispropane buffer, pH 6.0, read-out: Solubility pH 6.0 Concentration
[12] = bistrispropane buffer, pH 7.0, read-out: Solubility pH 7.0 Concentration
[13] = bistrispropane buffer, pH 8.0, read-out: Solubility pH 8.0 Concentration
[14] = glycylglycine buffer, pH 3.0, read-out: Solubility pH 3.0 Concentration
[15] = glycylglycine buffer, pH 4.0, read-out: Solubility pH 4.0 Concentration
[16] = glycylglycine buffer, pH 5.0, read-out: Solubility pH 5.0 Concentration
[17] = Table 5, selectivity, hCTR bind IC50 / hAmylin-R bind IC50
[18] = Table 5a, selectivity, hCTR bind IC50 / hAmylin-R bind IC50
[19] = Table 7, human binding selectivity, included for comparison
[20] = Table 7a (preferred compounds), human binding selectivity, included for comparison
[21] = ratio of human calcitonin receptor binding IC50 to human amylin receptor binding IC50
[22] = Table 7, rat binding selectivity, rCTR IC50 / rAmylin-R IC50
[23] = Table 7a (preferred compounds), rat binding selectivity, rCTR IC50 / rAmylin-R IC50
[24] = ratio of rCTR bind IC50 to rAmylin-R bind IC50

Ratio hCT/hAmylin funct. [1, 6] | Ratio hCT/hAmylin funct. [1, 7] | pEC50 [1] | Ratio hCT/hAmylin funct. [1, 8] | solubility at 18 h [2, 9] [µM] | solubility at 18 h [2, 10] [µM] | solubility at 18 h [2, 11] [µM] | solubility at 18 h [2, 12] [µM] | solubility at 18 h [2, 13] [µM] | solubility at 18 h [2, 14] [µM] | solubility at 18 h [2, 15] [µM] | solubility at 18 h [2, 16] [µM] | pIC50 [3] | Ratio hCT/hAmylin binding [3, 17] | Ratio hCT/hAmylin binding [3, 18] | Ratio hCT/hAmylin binding [3, 19] | Ratio hCT/hAmylin binding [3, 20] | Ratio hCT/hAmylin binding [3, 21] | pIC50 ([4]; Table 7) | Ratio rCT/rAmylin binding [4, 22] | SMILES | also measured
3.8 | 3.8 | 9.55 | 3.8 | 144 (≈ 659 µg/mL) | ≥ 200 | 156 (≈ 714 µg/mL) | 146 (≈ 668 µg/mL) | ≥ 200 | ≥ 200 | ≥ 200 | ≥ 200 | 9.20 | 35.6 | 35.6 | 35.6 | 35.6 | 35.6 | 8.68 | 45.6 | CC[C@H](C)[C@H](NC(=O)[C@H](C)NC(=O)CNC(=O)[C@H](Cc1ccccc1)NC(=O)[C@H](CC(N)=O)NC(=O)[C@@H]1CCCN1C(=O)[C@H](CO)NC(=O)[C@H](CO)NC(=O)[C@H](Cc1c[nH]cn1)NC(=O)[C@H](CCCNC(=N)N)NC(=O)[C@H](CC(C)C)NC(=O)[C@H](Cc1ccccc1)NC(=O)[C@H](CCC(=O)O)NC(=O)[C@H](C)NC(=O)[C@H](CC(C)C)NC(=O)[C@H](CCCNC(=N)N)NC(=O)[C@H](CCC(N)=O)NC(=O)[C@@H](NC(=O)[C@H](C)NC(=O)[C@@H]1CSSC[C@H](NC(=O)[C@@H](N)CCCCNC(=O)CC[C@H](NC(=O)CC[C@H](NC(=O)CCCCCCCCCCCCCCCCCCC(=O)O)C(=O)O)C(=O)O)C(=O)N[C@@H](CC(N)=O)C(=O)N[C@@H]([C@@H](C)O)C(=O)N[C@@H](C)C(=O)N[C@@H]([C@@H](C)O)C(=O)N1)[C@@H](C)O)C(=O)N1CCC[C@H]1C(=O)N[C@@H](CO)C(=O)N[C@@H](CO)C(=O)N[C@H](C(=O)N[C@@H](CC(N)=O)C(=O)N[C@H](C(=O)NCC(=O)N[C@@H](Cc1c[nH]cn1)C(=O)N[C@@H](CC(N)=O)C(=O)N[C@H](C(=O)N[C@@H](Cc1ccc(O)cc1)C(N)=O)[C@@H](C)O)C(C)C)[C@@H](C)O [Example 87] (H-K([γGlu-γGlu-C20 diacid])CNTATCATQRLAEFLRHSSPNFGAIPSSTNVGHNTY-NH2; disulfide 2-7) | Ratio hCT/hAmylin binding ([3]; Table 5b, selectivity, hCTR bind IC50 / hAmylin-R bind IC50): 35.6; Ratio hCT/hAmylin binding ([3]; Table 5c, selectivity, hCTR bind IC50 / hAmylin-R bind IC50): 35.6; Ratio rCT/rAmylin binding [4, 23]: 45.6; Ratio rCT/rAmylin binding [4, 24]: 45.6; pIC50 [5]: 7.02
8.8 | 8.8 | 9.57 | 8.8 | ≥ 200 | 159 (≈ 707 µg/mL) | ≥ 200 | ≥ 200 | 154 (≈ 685 µg/mL) | ≥ 200 | ≥ 200 | ≥ 200 | 9.06 | 12.5 | 12.5 | 12.5 | 12.5 | 12.5 | 8.57 | 35.9 | CC[C@H](C)[C@H](NC(=O)[C@H](C)NC(=O)CNC(=O)[C@H](Cc1ccccc1)NC(=O)[C@H](CC(N)=O)NC(=O)[C@@H]1CCCN1C(=O)[C@H](CO)NC(=O)[C@H](CO)NC(=O)[C@H](Cc1c[nH]cn1)NC(=O)[C@H](CCCNC(=N)N)NC(=O)[C@H](CC(C)C)NC(=O)[C@H](Cc1ccccc1)NC(=O)[C@H](CCC(=O)O)NC(=O)[C@H](C)NC(=O)[C@H](CC(C)C)NC(=O)[C@H](CCCNC(=N)N)NC(=O)[C@H](CCC(N)=O)NC(=O)[C@@H](NC(=O)[C@H](C)NC(=O)[C@@H]1CSSC[C@H](NC(=O)[C@H](CCCCN)NC(=O)CC[C@H](NC(=O)CCCCCCCCCCCCCCCCCCC(=O)O)C(=O)O)C(=O)N[C@@H](CC(N)=O)C(=O)N[C@@H]([C@@H](C)O)C(=O)N[C@@H](C)C(=O)N[C@@H]([C@@H](C)O)C(=O)N1)[C@@H](C)O)C(=O)N1CCC[C@H]1C(=O)N[C@@H](CO)C(=O)N[C@@H](CO)C(=O)N[C@H](C(=O)N[C@@H](CC(N)=O)C(=O)N[C@H](C(=O)NCC(=O)N[C@@H](Cc1c[nH]cn1)C(=O)N[C@@H](CC(N)=O)C(=O)N[C@H](C(=O)N[C@@H](Cc1ccc(O)cc1)C(N)=O)[C@@H](C)O)C(C)C)[C@@H](C)O [Example 17] ({C20 diacid-γGlu}-KCNTATCATQRLAEFLRHSSPNFGAIPSSTNVGHNTY-NH2; disulfide 2-7 (inferred)) | Ratio rCT/rAmylin binding [4, 23]: 35.9; Ratio rCT/rAmylin binding [4, 24]: 35.9; pIC50 [5]: 7.01
